Where two headings read alike, the source gives them in different places.
What was measured:
[1] = test system: MT-4 cells; assay: Cytotoxicity in mock-infected MT-4 cells, MTT method; format: cell-based; conditions: MTT method
[2] = test system: HIV-1 WT strain (IIIB); assay: Anti-HIV-1 activity in MT-4 cells, MTT method, WT strain IIIB; format: cell-based
[3] = test system: HIV-1 Y188L; assay: microbe, parasite or virus in culture; format: cell-based; conditions: for RF Y188L: resistance fold, EC50 (mutant strain)/EC50 (WT strain); for SI Y188L: selectivity index, ratio of CC50/EC50
[4] = Cytotoxicity in mock-infected MT-4 cells, MTT method; format: cell-based; conditions: human
[5] = test system: HIV-1 L100I; assay: microbe, parasite or virus in culture; format: cell-based; conditions: for EC50: Human immunodeficiency virus 1, MT4, read-out: EC50 L100I; for RF L100I: resistance fold, EC50 (mutant strain)/EC50 (WT strain); for SI L100I: selectivity index, ratio of CC50/EC50
[6] = test system: HIV-1 K103N + Y181C (RES056); assay: microbe, parasite or virus in culture; format: cell-based; conditions: for RF RES056: resistance fold, EC50 (mutant strain)/EC50 (WT strain); for SI RES056: selectivity index, ratio of CC50/EC50
[7] = test system: HIV-1 K103N; assay: microbe, parasite or virus in culture; format: cell-based; conditions: for RF K103N: resistance fold, EC50 (mutant strain)/EC50 (WT strain); for SI K103N: selectivity index, ratio of CC50/EC50
[8] = test system: HIV-1 E138K; assay: microbe, parasite or virus in culture; format: cell-based; conditions: for RF E138K: resistance fold, EC50 (mutant strain)/EC50 (WT strain); for SI E138K: selectivity index, ratio of CC50/EC50
[9] = test system: HIV-1 Y181C; assay: microbe, parasite or virus in culture; format: cell-based; conditions: for RF Y181C: resistance fold, EC50 (mutant strain)/EC50 (WT strain); for SI Y181C: selectivity index, ratio of CC50/EC50
[10] = molecular target: HIV-1 RT (Human immunodeficiency virus type 1 group M subtype B, UniProt P03366); assay: HIV-1 RT inhibition assay; format: biochemical
[11] = test system: HIV-1 F227L + V106A; assay: microbe, parasite or virus in culture; format: cell-based; conditions: for RF F227L + V106A: resistance fold, EC50 (mutant strain)/EC50 (WT strain); for SI F227L + V106A: selectivity index, ratio of CC50/EC50
[12] = cited from earlier work
[13] = In vivo pharmacokinetics in SD rats; parameters: species or system Sprague–Dawley (SD) rats
[14] = test system: CYP1A2, CYP2C9, CYP2C19, CYP2D6 (range over isoforms); assay: Cytochrome P450 inhibition assay, summary over isoforms; format: in vitro ADME; conditions: human, human liver microsomes
[15] = physchem
[16] = read-out: EC50 IIIB, MT-4 cells, MTT method, HIV-1 IIIB (WT)
[17] = Human immunodeficiency virus 1, MT4, read-out: EC50 Y188L
[18] = Human immunodeficiency virus 1, MT4, read-out: EC50 RES056
[19] = Human immunodeficiency virus 1, IIIB, MT4, read-out: EC50 IIIB
[20] = Human immunodeficiency virus 1, MT4, read-out: EC50 K103N
[21] = Human immunodeficiency virus 1, MT4, read-out: EC50 E138K
[22] = Human immunodeficiency virus 1, MT4, read-out: EC50 Y181C
[23] = Human immunodeficiency virus 1, MT4, read-out: EC50 F227L + V106A
[24] = Sprague-Dawley, rat, plasma, iv, 2 mg/kg
[25] = Sprague-Dawley, rat, plasma, po, 20 mg/kg

Molecule	EC50 [3, 17]	RF Y188L [3]	SI Y188L [3]	CC50 at 5 days [4]	EC50 [5]	RF L100I [5]	SI L100I [5]	EC50 [6, 18]	RF RES056 [6]	SI RES056 [6]	EC50 [2, 19]	EC50 [7, 20]	RF K103N [7]	SI K103N [7]	EC50 [8, 21]	RF E138K [8]	EC50 [9, 22]	RF Y181C [9]	EC50 [11, 23]	RF F227L + V106A [11]	other results
4-((1-(4-(4-Cyano-2,6-dimethylphenoxy)-7,8-dihydro-6H-thiopyrano[3,2-d]pyrimidin-2-yl)piperidin-4-yl)amino)benzenesulfonamide [19b]																					CC50 [1]: 3070 ± 300 nM; EC50 IIIB ([2]; MT-4 cells, MTT method, HIV-1 IIIB (WT)): lost potency; EC50 [2, 16]: > 16100 nM
Cc1cc(/C=C/C#N)cc(C)c1Oc1nc(Nc2ccc(C#N)cc2)nc2c1SCCC2 [15b, (E)-4-((4-(4-(2-Cyanovinyl)-2,6-dimethylphenoxy)-7,8-dihydro-6H-thiopyrano[3,2-d]pyrimidin-2-yl)amino)benzonitrile]	23.3 ± 0.48 nM	7.3	210	4890 ± 620 nM	7.26 ± 0.51 nM	2.3	674	23.5 ± 14.7 nM	7.4	208	3.18 ± 1.21 nM	6.42 ± 0.4 nM	2.0	762	21.7 ± 7.55 nM	6.8	11.1 ± 3.39 nM	3.5	27.9 ± 9.17 nM	8.8	Times greater activity than ETR, L100I ([5]; ratio of EC50 values vs ETR): 1.3 times; SI E138K [8]: 225; SI Y181C [9]: 441; IC50 [10]: 101 ± 12 nM; SI F227L + V106A [11]: 175
Cc1cc(C#N)cc(C)c1Oc1nc(NC2CCN(c3cccc(C(N)=O)c3)CC2)nc2c1SCCC2 [27b, 3-(4-((4-(4-Cyano-2,6-dimethylphenoxy)-7,8-dihydro-6H-thiopyrano[3,2-d]pyrimidin-2-yl)amino)piperidin-1-yl)benzamide]	7.14 ± 1.5 nM	1.9	839	5990 ± 2950 nM	13.3 ± 6.79 nM	3.5	450	24.5 ± 8.11 nM	6.5	244	3.76 ± 2.29 nM	5.46 nM	1.5	1097	17.1 ± 4.42 nM	4.5	7.87 ± 1.84 nM	2.1	111 ± 11.4 nM	29.5	SI E138K [8]: 350; SI Y181C [9]: 761; SI F227L + V106A [11]: 54
O=C1Nc2ccc(Cl)cc2[C@@](C#CC2CC2)(C(F)(F)F)O1 [EFV, efavirenz, reference compound]	93.2 ± 58.9 nM			> 6340 nM	57.4 ± 45.9 nM			114 ± 55.6 nM			2.67 ± 1.73 nM	99.2 ± 56.8 nM			4.67 ± 1.38 nM		4.94 ± 1.75 nM		77.4 ± 55.9 nM		
Cc1cc(C#N)cc(C)c1Oc1nc(Nc2ccc(C#N)cc2)nc(N)c1Br [ETR, etravirine, reference compound]	15.4 ± 6.07 nM	5.5		2200 ± 15 nM	9.13 ± 6.1 nM	3.2		35.2 ± 19.7 nM	12.5		2.81 ± 0.47 nM	3.38 ± 0.69 nM	1.2				14.1 ± 5.72 nM	5.0	16.3 ± 6.24 nM	5.8	Water solubility (Sol.) [12]: < 1 µg/mL; V (iv) ([13]; SD rats, iv 2 mg/kg, mean ± SD, n = 3): 8.85 ± 1.17 L/kg; AUC(0-inf) [13, 24]: 587 ± 48 ng·h/mL; AUC(0-t) [13, 24]: 576 ± 45 ng·h/mL; MRT inf [13, 24]: 1.1 ± 0.34 h; MRT last [13, 24]: 0.93 ± 0.23 h; clearance [13, 24]: 57 mL/min/kg; half-life [13, 24]: 1.8 ± 0.24 h; bioavailability ([13]; Sprague-Dawley, rat, plasma, oral, 20 mg/kg): 7.17%; AUC(0-inf) [13, 25]: 421 ± 153 ng·h/mL; AUC(0-t) [13, 25]: 395 ± 139 ng·h/mL; Cmax [13, 25]: 110 ± 34.1 ng/mL; MRT inf [13, 25]: 3.03 ± 0.14 h; MRT last [13, 25]: 2.55 ± 0.04 h; Tmax [13, 25]: 1 h; half-life [13, 25]: 1.82 ± 0.07 h; IC50 at 10 min [14]: 277 to 12000 nM; solubility ([15]; pH 7, aqueous buffer): < 1 µg/mL; solubility ([15]; pH 7.4, aqueous buffer): < 1 µg/mL
Cc1ccnc2c1NC(=O)c1cccnc1N2C1CC1 [NVP, reference compound]		37.4							18.8				30.0			1.3		32.0		30.0	EC50 ([3]; read-out: EC50 Y188L, MT-4 cells, MTT method): 4420 ± 2470 nM; CC50 [1]: > 15000 nM; EC50 ([6]; read-out: EC50 RES056, MT-4 cells, MTT method, RES056 (K103N + Y181C)): 2220 ± 736 nM; EC50 [2, 16]: 118 ± 66.9 nM; EC50 ([7]; read-out: EC50 K103N, MT-4 cells, MTT method): 3550 ± 2410 nM; EC50 ([8]; read-out: EC50 E138K, MT-4 cells, MTT method): 158 ± 112 nM; EC50 ([9]; read-out: EC50 Y181C, MT-4 cells, MTT method): 3780 ± 2580 nM; EC50 ([11]; read-out: EC50 F227L + V106A, MT-4 cells, MTT method): 3540 ± 2750 nM
Cc1cc(/C=C/C#N)cc(C)c1Nc1ccnc(Nc2ccc(C#N)cc2)n1 [RPV, rilpivirine, reference compound]		80				1.5					1 ± 0.27 nM		1.3			5.8				82	Water solubility (Sol.) [12]: < 1 µg/mL; IC50 at 10 min [14]: 335 to 9110 nM; IC50 [10]: 118 ± 27 nM
Cc1cc(C#N)cc(C)c1Oc1nc(Nc2ccc(C#N)cc2)nc2c1SCCC2 [compound 15a, 4-((2-((4-Cyanophenyl)amino)-7,8-dihydro-6H-thiopyrano[3,2-d]pyrimidin-4-yl)oxy)-3,5-dimethylbenzonitrile]	20.7 ± 1.88 nM	6.1	219	4530 ± 720 nM	16.7 ± 4.51 nM	4.9	271	85.3 ± 54.3 nM	25.2	53	3.38 ± 3.17 nM	6.41 ± 0.99 nM	1.9	707	17.4 ± 2.24 nM	5.1	42.3 ± 4.45 nM	12.5	40.9 nM	12.1	SI E138K [8]: 260; SI Y181C [9]: 107; SI F227L + V106A [11]: 111
Cc1cc(C#N)cc(C)c1Oc1nc(Nc2ccc(C#N)cc2)nc2c1S(=O)(=O)CCC2 [compound 16b, 4-((2-((4-Cyanophenyl)amino)-5,5-dioxido-7,8-dihydro-6H-thiopyrano[3,2-d]pyrimidin-4-yl)oxy)-3,5-dimethylbenzonitrile]	12.3 ± 2.27 nM	8.5	1520	18700 ± 8010 nM	21.8 ± 5.65 nM	15.1	858	49.1 ± 14 nM	34.1	381	1.44 ± 0.17 nM	2.3 ± 0.15 nM	1.6	8130	10.9 ± 0.32 nM	7.6	10.4 ± 1.44 nM	7.2	37.9 ± 21.3 nM	26.3	SI E138K [8]: 1716; SI Y181C [9]: 1798; IC50 [10]: 27 ± 11 nM; SI F227L + V106A [11]: 493

Source: PMC10935503 (Acta Pharmaceutica Sinica. B, 2023)
